Results from ChEMBL document CHEMBL1933047, “Novel poly(ADP-ribose) polymerase-1 inhibitors” (Bioorg Med Chem Lett, 2012).

Legend:
[1] = biological target: Poly [ADP-ribose] polymerase 1 (Rattus norvegicus) (UniProt P27008); test: Inhibition of PARP1 in rat PC12 cells assessed as NAD+ recovery at 3 uM pre-treated for 1 hr before hydrogen peroxide addition followed by washout and compound treated again for 1 hr relative to 5H-phenanthridin-6-one; format: cell-based; conditions: PC-12
[2] = biological target: Poly [ADP-ribose] polymerase 1 (Rattus norvegicus) (UniProt P27008); test: Inhibition of PARP1 in rat PC12 cells assessed as NAD+ recovery at 1 uM pre-treated for 1 hr before hydrogen peroxide addition followed by washout and compound treated again for 1 hr relative to control; format: cell-based; conditions: PC-12
[3] = biological target: Poly [ADP-ribose] polymerase 1 (Homo sapiens, UniProt P09874); test: Inhibition of recombinant human PARP1 by in vitro assay
Sequence of Poly [ADP-ribose] polymerase 1 (P09874 whole entry): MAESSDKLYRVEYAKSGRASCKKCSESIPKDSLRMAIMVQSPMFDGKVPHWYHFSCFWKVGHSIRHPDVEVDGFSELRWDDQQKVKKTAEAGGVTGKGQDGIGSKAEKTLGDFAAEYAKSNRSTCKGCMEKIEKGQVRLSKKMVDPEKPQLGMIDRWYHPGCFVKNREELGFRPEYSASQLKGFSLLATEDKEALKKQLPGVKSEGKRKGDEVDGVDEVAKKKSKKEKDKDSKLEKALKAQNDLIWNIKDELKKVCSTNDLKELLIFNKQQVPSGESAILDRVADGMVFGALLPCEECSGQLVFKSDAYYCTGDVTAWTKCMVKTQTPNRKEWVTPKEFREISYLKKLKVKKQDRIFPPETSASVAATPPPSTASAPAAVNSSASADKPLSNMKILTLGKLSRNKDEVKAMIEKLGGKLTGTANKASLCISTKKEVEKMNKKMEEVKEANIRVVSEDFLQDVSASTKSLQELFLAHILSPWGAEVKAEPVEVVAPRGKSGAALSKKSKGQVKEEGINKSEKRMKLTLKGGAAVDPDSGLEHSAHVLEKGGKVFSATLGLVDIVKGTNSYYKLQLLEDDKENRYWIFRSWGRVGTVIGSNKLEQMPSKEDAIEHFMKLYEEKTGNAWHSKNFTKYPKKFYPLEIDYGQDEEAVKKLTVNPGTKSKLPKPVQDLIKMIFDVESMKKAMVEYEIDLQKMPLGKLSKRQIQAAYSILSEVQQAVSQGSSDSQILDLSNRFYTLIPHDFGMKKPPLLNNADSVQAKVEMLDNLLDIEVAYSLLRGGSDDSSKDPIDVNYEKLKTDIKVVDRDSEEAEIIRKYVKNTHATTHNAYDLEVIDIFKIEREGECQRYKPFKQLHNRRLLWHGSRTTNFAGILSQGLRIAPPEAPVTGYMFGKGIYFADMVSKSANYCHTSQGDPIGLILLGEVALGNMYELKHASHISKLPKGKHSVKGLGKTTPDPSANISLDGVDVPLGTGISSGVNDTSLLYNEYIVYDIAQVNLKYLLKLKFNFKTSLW

[4] = biological target: Poly [ADP-ribose] polymerase 1 (Rattus norvegicus) (UniProt P27008); test: Inhibition of PARP1 in rat PC12 cells assessed as NAD+ recovery at 30 uM pre-treated for 1 hr before hydrogen peroxide addition followed by washout and compound treated again for 1 hr relative to 5H-phenanthridin-6-one; format: cell-based; conditions: PC-12
[5] = biological target: Poly [ADP-ribose] polymerase 1 (Rattus norvegicus) (UniProt P27008); test: Inhibition of PARP1 in rat PC12 cells assessed as NAD+ recovery at 10 uM pre-treated for 1 hr before hydrogen peroxide addition followed by washout and compound treated again for 1 hr relative to 5H-phenanthridin-6-one; format: cell-based; conditions: PC-12

Sequence of Poly [ADP-ribose] polymerase 1 (Rattus norvegicus) (P27008 whole entry): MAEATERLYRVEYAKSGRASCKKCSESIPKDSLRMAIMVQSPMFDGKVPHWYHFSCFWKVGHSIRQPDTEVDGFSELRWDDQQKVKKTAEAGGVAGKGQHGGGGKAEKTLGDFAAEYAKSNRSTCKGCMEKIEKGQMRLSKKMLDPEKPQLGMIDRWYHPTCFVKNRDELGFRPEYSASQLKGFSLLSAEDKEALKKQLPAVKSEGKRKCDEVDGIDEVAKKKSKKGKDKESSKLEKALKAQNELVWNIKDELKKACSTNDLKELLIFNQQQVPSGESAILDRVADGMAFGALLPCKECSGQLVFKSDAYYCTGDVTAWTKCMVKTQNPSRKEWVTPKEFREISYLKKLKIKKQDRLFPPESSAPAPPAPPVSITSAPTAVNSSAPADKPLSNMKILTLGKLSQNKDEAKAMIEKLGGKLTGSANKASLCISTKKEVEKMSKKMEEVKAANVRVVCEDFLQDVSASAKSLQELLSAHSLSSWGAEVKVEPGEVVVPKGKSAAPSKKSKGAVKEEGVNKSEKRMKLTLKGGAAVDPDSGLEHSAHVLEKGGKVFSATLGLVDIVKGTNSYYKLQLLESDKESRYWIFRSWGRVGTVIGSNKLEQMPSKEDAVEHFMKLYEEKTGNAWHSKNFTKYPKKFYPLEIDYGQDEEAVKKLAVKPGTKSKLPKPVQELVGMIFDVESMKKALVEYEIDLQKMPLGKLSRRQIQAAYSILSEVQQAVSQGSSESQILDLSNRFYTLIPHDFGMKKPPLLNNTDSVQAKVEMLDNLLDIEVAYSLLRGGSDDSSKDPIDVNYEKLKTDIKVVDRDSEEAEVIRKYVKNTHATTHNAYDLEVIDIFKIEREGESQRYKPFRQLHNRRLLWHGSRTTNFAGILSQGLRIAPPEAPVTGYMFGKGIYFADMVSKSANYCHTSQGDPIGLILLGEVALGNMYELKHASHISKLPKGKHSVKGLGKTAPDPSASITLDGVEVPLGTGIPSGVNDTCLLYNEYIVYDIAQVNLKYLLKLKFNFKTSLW

`O=C(CCC(=O)N1CCC[C@H]1C(=O)O)c1ccc2[nH]c3c4c(c5c(c3c2c1)C(=O)NC5=O)CCC4` was tested. Which inhibition [1] did it give?
The inhibition was 14%.

What about the inhibition [2] of the same molecule?
Its inhibition is 4%.

What about the IC50 [3] of the same molecule?
The IC50 was 2 nM.

How did the inhibition [4] turn out when `CC(C)(C)OC(=O)NCCNC(=O)CCC(=O)c1ccc2[nH]c3c4c(c5c(c3c2c1)C(=O)NC5=O)CCC4` was run?
The inhibition was 48%.

What about the inhibition [2] of the same molecule?
The inhibition was 26%.

What does the source list for `CN(CC(=O)OC(C)(C)C)CC(=O)c1ccc2[nH]c3c4c(c5c(c3c2c1)C(=O)NC5=O)CCC4`?
inhibition [4]: 73%; inhibition [2]: 14%; IC50 [3]: 19 nM

Which results are given for `NCCNC(=O)CCC(=O)c1ccc2[nH]c3c4c(c5c(c3c2c1)C(=O)NC5=O)CCC4`?
inhibition [2]: 14%; inhibition [5]: 32%

How did the inhibition [4] turn out when `O=C(CCC(=O)N1CCOCC1)c1ccc2[nH]c3c4c(c5c(c3c2c1)C(=O)NC5=O)CCC4` was run?
The inhibition was 65%.

What about the inhibition [2] of the same molecule?
Its inhibition is 38%.

Which inhibition [4] does the source give for `O=C(CCC(=O)N1CCCCC1)c1ccc2[nH]c3c4c(c5c(c3c2c1)C(=O)NC5=O)CCC4` here?
The inhibition was 59%.

And the inhibition [2]?
Its inhibition is 55%.

Which inhibition [2] does the source give for `CN1N=C(c2ccc3[nH]c4c5c(c6c(c4c3c2)C(=O)NC6=O)CCC5)CCC1=O` here?
Its inhibition is 29%.

`CC(C)(C)OC(=O)N1CCN(C(=O)CCC(=O)c2ccc3[nH]c4c5c(c6c(c4c3c2)C(=O)NC6=O)CCC5)CC1` was tested. Which inhibition [4] did it give?
The inhibition was 29%.

And the inhibition [2]?
The inhibition was 19%.

How did the inhibition [2] turn out when `O=C(CCC(=O)N1CCNCC1)c1ccc2[nH]c3c4c(c5c(c3c2c1)C(=O)NC5=O)CCC4` was run?
Its inhibition is 10%.

How did the inhibition [2] turn out when `O=C(CCC(=O)c1ccc2[nH]c3c4c(c5c(c3c2c1)C(=O)NC5=O)CCC4)NCCO` was run?
Its inhibition is 24%.

And the inhibition [5]?
The inhibition was 26%.

How did the inhibition [2] turn out when `NC(=O)[C@@H]1CCCN1C(=O)CCC(=O)c1ccc2[nH]c3c4c(c5c(c3c2c1)C(=O)NC5=O)CCC4` was run?
Its inhibition is 11%.

Which results are given for `CCN(CC)CC(=O)c1ccc2[nH]c3c4c(c5c(c3c2c1)C(=O)NC5=O)CCC4`?
inhibition [4]: 70%; inhibition [2]: 10%

Which results are given for `O=C1NC(=O)c2c1c1c(c3[nH]c4ccccc4c23)CCC1`?
inhibition [4]: 42%; inhibition [2]: 30%

How did the inhibition [4] turn out when `CCN(CC)C(=O)CCC(=O)c1ccc2[nH]c3c4c(c5c(c3c2c1)C(=O)NC5=O)CCC4` was run?
Its inhibition is 78%.

What about the inhibition [2] of the same molecule?
Its inhibition is 41%.

Which inhibition [2] does the source give for `O=C(CN1CCOCC1)c1ccc2[nH]c3c4c(c5c(c3c2c1)C(=O)NC5=O)CCC4` here?
Its inhibition is 38%.

What about the inhibition [5] of the same molecule?
Its inhibition is 63%.

What about the IC50 [3] of the same molecule?
The IC50 was 13 nM.

With `O=C(CCC(=O)N1CCCC1)c1ccc2[nH]c3c4c(c5c(c3c2c1)C(=O)NC5=O)CCC4` as the molecule, how does the inhibition [4] read?
The inhibition was 92%.

What about the inhibition [2] of the same molecule?
Its inhibition is 32%.

With `O=C(CN1CCC[C@H]1C(=O)O)c1ccc2[nH]c3c4c(c5c(c3c2c1)C(=O)NC5=O)CCC4` as the molecule, how does the inhibition [4] read?
Its inhibition is 43%.

And the inhibition [2]?
Its inhibition is 14%.

What about the IC50 [3] of the same molecule?
The IC50 was 7 nM.

What does the source list for `O=C1CCC(c2ccc3[nH]c4c5c(c6c(c4c3c2)C(=O)NC6=O)CCC5)=NN1`?
inhibition [2]: 29%; inhibition [5]: 49%

Which inhibition [4] does the source give for `O=C(CN1CCCCC1)c1ccc2[nH]c3c4c(c5c(c3c2c1)C(=O)NC5=O)CCC4` here?
Its inhibition is 50%.

What about the inhibition [2] of the same molecule?
The inhibition was 14%.

What does the source list for `O=C(Cn1cncn1)c1ccc2[nH]c3c4c(c5c(c3c2c1)C(=O)NC5=O)CCC4`?
inhibition [4]: 55%; inhibition [2]: 25%

Which results are given for `COC(=O)[C@@H]1CCCN1CC(=O)c1ccc2[nH]c3c4c(c5c(c3c2c1)C(=O)NC5=O)CCC4`?
inhibition [4]: 100%; inhibition [2]: 27%; IC50 [3]: 12 nM

What does the source list for `O=C(O)CCC(=O)c1ccc2[nH]c3c4c(c5c(c3c2c1)C(=O)NC5=O)CCC4`?
inhibition [4]: 42%; inhibition [2]: 8%

`CC(C)(C)OC(=O)[C@@H]1CCCN1C(=O)CCC(=O)c1ccc2[nH]c3c4c(c5c(c3c2c1)C(=O)NC5=O)CCC4` was tested. Which inhibition [4] did it give?
The inhibition was 98%.

What about the inhibition [2] of the same molecule?
The inhibition was 39%.

Which inhibition [4] does the source give for `CN(CC(=O)O)CC(=O)c1ccc2[nH]c3c4c(c5c(c3c2c1)C(=O)NC5=O)CCC4` here?
Its inhibition is 45%.

What about the inhibition [2] of the same molecule?
The inhibition was 14%.

`CN1CCN(CC(=O)c2ccc3[nH]c4c5c(c6c(c4c3c2)C(=O)NC6=O)CCC5)CC1` was tested. Which inhibition [2] did it give?
Its inhibition is 7%.

And the inhibition [5]?
Its inhibition is 43%.

What does the source list for `CC(C)(C)OC(=O)[C@@H]1CCCN1CC(=O)c1ccc2[nH]c3c4c(c5c(c3c2c1)C(=O)NC5=O)CCC4`?
inhibition [4]: 88%; inhibition [2]: 24%
